test system: Th17 cells differentiated from splenocytes isolated from mouse; assay: Analysis of effect under Th17 differentiation conditions (flow cytometry of IL-17A and Foxp3); format: cell-based; conditions: sample 2 μM, 4 days
Excerpt: Th17 cells are a subset of CD4 T cells. The Th17 cells are known to secrete a cytokine known as IL-17 and cause inflammation. This is the major cause of autoimmune disease. And, Treg cells (regulatory T cells) are known to suppress and regulate inflammation by expressing the transcription factor called Foxp3. Accordingly, since it is thought that the effect of preventing and treating autoimmune disease may be achieved by regulating inflammation by inhibiting Th17 cells (IL-17) and increasing Treg (Foxp3) cells, the effect of the peptides of the present disclosure was investigated.
Undifferentiated CD4 T cells (naive CD4 T cells) were isolated from splenocytes of 6- to 8-week-old C57BL/6 mice using a mouse undifferentiated CD4+ T cell (naive CD4 T cell) isolation kit (Miltenyi Biotec, Auburn, CA, USA) according to the manufacturer's protocols. For RNAseq, the undifferentiated CD4 T cells (naive CD4 T cells) from the Foxp3-GFP mice were purified, differentiated into Th17 cells and sorted into Foxp3^+ and Foxp3^− populations using a cell sorter (FACS Aria cell sorter BD Biosciences, Franklin Lakes, NJ, USA). The purified undifferentiated CD4 T cells (naive CD4 T cells) were activated with plate-bound anti-CD3 (2 or 5 μg/mL, 553057; BD Pharmingen, La Jolla, CA) and anti-CD28 (2 or 5 μg/mL, 553294; BD Pharmingen, La Jolla, CA) antibodies and differentiated by treating with the following cytokine cocktails in a 96-well plate for 3 or 4 days: Th0; recombinant human TGF-β(R&D Systems) 0.25 ng/mL. Th1; anti-IL-4 (11B11; 16-7041-85; eBioscience) 5 μg/mL, IL-2 (212-12; Peprotech, Rocky Hill, NJ) 50 U/mL, recombinant murine IL-12 (212-12; Peprotech) 2 ng/mL, recombinant human TGF-β (R&D Systems) for Th1 0.25 ng/mL. Th17; anti-IFN-γ (XMG1.2; 16-7311-85; eBioscience) 5 μg/mL, anti-IL-4 (11B11; 16-7041-85; eBioscience) 5 μg/mL, recombinant murine TGF-β (7666-MB, R&D Systems, Minneapolis, MN) 2 ng/mL, IL-6 (216-16; Peprotech) 30 ng/mL, IL-23 (1887-ML-101; R&D Systems) 20 ng/mL, IL-1β (401-ML-010; R&D Systems) 20 ng/mL, and IL-2 (Peprotech) 50 U/mL. Treg; IL-2 (Peprotech) 50 U/mL and TGF-β (R&D Systems) 0.5 ng/mL.
The cells were cotreated with the cytokine cocktails and the samples (2 μM). 4 days later, they were analyzed by flow cytometry using IL-17 and Foxp3 fluorescent antibodies. In some experiments, 5 μM PKC-η pseudosubstrate inhibitor (sc-3096; Santa Cruz) or 5 μM ERK inhibitor (UO126, 662005; Sigma) were also added.
For flow cytometric analysis of living cells only, dead cells were excluded using the Zombie Aqua™ fixable viability kit (Biolegend) before staining with antibodies at room temperature for 10 minutes. After washing, surface proteins of the differentiated Th1, Th17 and Treg cells were stained with monoclonal antibodies at 4° C. for 15 minutes. To determine intracellular cytokine levels, the cells were restimulated with a cell stimulation cocktail (plus protein transport inhibitors) (ThermoFisher) at 37° C. for 4 hours and then stained with surface marker antibodies. The cells were then fixed, permeabilized using a Foxp3/transcription factor staining buffer set (eBioscience) and stained with anti-mouse IFN-γ, anti-mouse IL-17 and anti-mouse Foxp3. The cells were analyzed using a FACS Canto II flow cytometer and the FlowJo software version 10.7.

**Q.** RRRWCKRRRGGKALKKRSKALKKRS (AP-K2 MA) was tested. Which “order of the reduction of IL-17 and the increase of Foxp3 among AP-K2 variants” value did it give?
**A.** in the order of the AP-K2 SA group, the AP-K2 2KA group, the AP-K2 3KA group and the AP-K2 MA group

**Q.** Which “order of the reduction of IL-17 and the increase of Foxp3 among AP-K2 variants” value does the source give for RRRWCKRRRGGKMLAKRSKMLAKRS (AP-K2 2KA) here?
**A.** in the order of the AP-K2 SA group, the AP-K2 2KA group, the AP-K2 3KA group and the AP-K2 MA group

**Q.** RRRWCKRRRGGKMLKARSKMLKARS (AP-K2 3KA) was tested. Which “order of the reduction of IL-17 and the increase of Foxp3 among AP-K2 variants” value did it give?
**A.** in the order of the AP-K2 SA group, the AP-K2 2KA group, the AP-K2 3KA group and the AP-K2 MA group

**Q.** For RRRWCKRRRGGKMLKKRAKMLKKRA (AP-K2 SA), which “order of the reduction of IL-17 and the increase of Foxp3 among AP-K2 variants” value is on record?
**A.** in the order of the AP-K2 SA group, the AP-K2 2KA group, the AP-K2 3KA group and the AP-K2 MA group

same assay, conditions: sample 2 μM, flow cytometry 4 days later, comparator as named in the value (Th17/PBS control, K1, AP-K2)

**Q.** How did the “effect of suppressing immune response (decrease of IL-17 and increase of Foxp3)” value turn out when PPTEPECE (P) [motif of CTLA4] was run?
**A.** did not show significant difference from the dNP2 group or the Th17 group

**Q.** Which “effect of suppressing immune response (decrease of IL-17 and increase of Foxp3)” value does the source give for “RRRWCKRRRGGAMLAAASAMLAAAS (AP-K2 KA) [negative control, lysine and arginine residues of AP-K2 replaced with alanine]” here?
**A.** decreased slightly

**Q.** With RRRWCKRRRGGAMLKKRSAMLKKRS (AP-K2 1KA) as the substance, how does the “effect of suppressing immune response (decrease of IL-17 and increase of Foxp3)” value read?
**A.** decreased significantly

**Q.** RRRWCKRRRGGKMAKKRSKMAKKRS (AP-K2 LA) was tested. Which “effect of suppressing immune response (decrease of IL-17 and increase of Foxp3)” value did it give?
**A.** slightly decreased function of AP-L2

**Q.** Which “effect of suppressing immune response (decrease of IL-17 and increase of Foxp3)” value does the source give for RRRWCKRRRGGKMLKKASKMLKKAS (AP-K2 RA) here?
**A.** decreased significantly

**Q.** With SPLTTGV (S) [motif of CTLA4] as the substance, how does the “effect of suppressing immune response (decrease of IL-17 and increase of Foxp3)” value read?
**A.** did not show significant difference from the dNP2 group or the Th17 group

**Q.** How did the “effect of suppressing immune response (decrease of IL-17 and increase of Foxp3)” value turn out when “YFIPIN (Y2) [Example Y2, motif of CTLA4]” was run?
**A.** did not show significant difference from the dNP2 group or the Th17 group

**Q.** With YVKM (Y1) [Example Y1, motif of CTLA4] as the substance, how does the “effect of suppressing immune response (decrease of IL-17 and increase of Foxp3)” value read?
**A.** did not show significant difference from the dNP2 group or the Th17 group

Reference: patent US20240166687A1, “REGULATORY T CELL-INDUCING PEPTIDE AND COMPOSITION INCLUDING SAME FOR PREVENTING OR TREATING AUTOIMMUNE DISEASE” (IUCF-HYU (INDUSTRY-UNIVERSITY COOPERATION FOUNDATION …, priority 2021, published 2024)
